Target: GABAA central benzodiazepine receptor
Experiment: Benzodiazepine Binding Assay
Conditions: read-out: BZ binding Assay IC50; 1 nM (3H)-flunitrazepam, rat whole brain (except cerebellum) membranes, 60 minutes at 25° C.

IC50 [µM] | Compound
< 1 | O=C(N1CCN(c2ccccc2)CC1)n1cc2c(=O)n(-c3ccccc3)nc-2c2ccccc21 [Compd 10, 5-(4-Phenylpiperazine-1-carbonyl)-2-phenyl-2,5-dihydro-pyrazolo-(4,3-c) quinolin-3-one]
< 1 | Cc1c2c(=O)n(-c3ccccc3)nc-2c2ccccc2n1C(=O)N1CCN(C)CC1 [Compd 44, 4-Methyl-5-(4-methylpiperazine-1-carbonyl)-2-phenyl-2,5-dihydro-pyrazolo[4,3-c]quinolin-3-one]
> 1 | O=C(N1CCC(O)CC1)n1cc2c(=O)n(-c3ccccc3)nc-2c2ccccc21 [Compd 30, 5-(4-Hydroxypiperidine-1-carbonyl)-2-phenyl-2,5-dihydro-pyrazolo-(4,3-c)quinolin-3-one]
< 1 | Cc1ccc2c(c1)c1nn(-c3ccccc3)c(=O)c-1cn2C(=O)N1CCN(C)CC1 [Compd 26, 5-(4-Methylpiperazine-1-carbonyl)-8-methyl-2-phenyl-2,5-dihydro-pyrazolo-(4,3-c)quinolin-3-one]
< 1 | Cc1c2c(=O)n(-c3ccccc3)nc-2c2ccccc2n1C(=O)N1CCN(C(C)C)CC1 [Compd 43, 5-(4-Isopropylpiperazine-1-carbonyl)-4-methyl-2-phenyl-2,5-dihydro-pyrazolo[4,3-c]quinolin-3-one]
< 1 | Cc1ccc2c(c1)c1nn(-c3ccccc3)c(=O)c-1cn2C(=O)N1CCCN(C)CC1 [Compd 29, 5-(4-Methylperhydro[1,4]-diazepine-1-carbonyl)-8-methyl-2-phenyl-2,5-dihydro-pyrazolo-(4,3-c)quinolin-3-one]
< 1 | COc1ccc2c(c1)c1nn(-c3ccccc3)c(=O)c-1cn2C(=O)N1CCN(C(C)C)CC1 [Compd 23, 5-(4-Isopropylpiperazine-1-carbonyl)-8-methoxy-2-phenyl-2,5-dihydro-pyrazolo-(4,3-c)quinolin-3-one]
< 1 | CN1CCN(C(=O)n2cc3c(=O)n(-c4ccccc4F)nc-3c3ccccc32)CC1 [Compd 16, 5-(4-Methylpiperazine-1-carbonyl)-2-(2′-fluorophenyl)-2,5-dihydro-pyrazolo-(4,3-c)quinolin-3-one]
< 1 | CN(C)C(=O)n1cc2c(=O)n(-c3ccccc3)nc-2c2ccccc21 [Compd 32, 5-(Dimethylaminocarbonyl)-2-phenyl-2,5-dihydro-pyrazolo-(4,3-c)quinolin-3-one]
< 1 | Cc1ccc2c(c1)c1nn(-c3ccccc3)c(=O)c-1cn2C(=O)N1CCC(F)CC1 [Compd 28, 5-(4-Fluoropiperidine-1-carbonyl)-8-methyl-2-phenyl-2,5-dihydro-pyrazolo-(4,3-c)quinolin-3-one]
< 1 | CN1CCN(C(=O)n2cc3c(=O)n(-c4ccsc4)nc-3c3cc(F)c(F)cc32)CC1 [Compd 49, 5-(4-Methylpiperazine-1-carbonyl)-2-(thiophen-3-yl)-7,8-difluoro-2,5-dihydro-pyrazolo[4,3-c]quinolin-3-one]
< 1 | CN1CCN(C(=O)n2cc3c(=O)n(-c4ccccc4)nc-3c3ccccc32)CC1 [Compd 36, 5-(4-Methylpiperazine-1-carbonyl)-2-phenyl-2,5-dihydro-pyrazolo-(4,3-c)quinolin-3-one]
< 1 | CN(C)C1CCN(C(=O)n2cc3c(=O)n(-c4ccccc4)nc-3c3ccccc32)CC1 [Compd 33, 5-(4-N,N-Dimethylaminopiperidine-1-carbonyl)-2-phenyl-2,5-dihydro-pyrazolo-(4,3-c)quinolin-3-one]
< 1 | CN1CCN(C(=O)n2cc3c(=O)n(-c4ccccc4)nc-3c3cc(C(F)(F)F)ccc32)CC1 [Compd 45, 5-(4-Methylpiperazine-1-carbonyl)-2-phenyl-8-trifluoromethyl-2,5-dihydro-pyrazolo[4,3-c]quinolin-3-one]
< 1 | Cc1cc2c(cc1F)c1nn(-c3ccccc3)c(=O)c-1cn2C(=O)N1CCN(C)CC1 [Compd 41, 8-Fluoro-7-methyl-5-(4-methylpiperazine-1-carbonyl)-2-phenyl-2,5-dihydro-pyrazolo-(4,3-c)quinolin-3-one]
< 1 | CC(C)N1CCN(C(=O)n2cc3c(=O)n(-c4ccc(Cl)cc4)nc-3c3cc(F)ccc32)CC1 [Compd 35, 5-(4-Isopropylpiperazine-1-carbonyl)-8-fluoro-2-(4-chlorophenyl)-2,5-dihydro-pyrazolo-(4,3-c)quinolin-3-one]
< 1 | CC1CCN(C(=O)n2cc3c(=O)n(-c4ccccc4)nc-3c3ccccc32)CC1 [Compd 5, 5-(4-Methylpiperidine-1-carbonyl)-2-phenyl-2,5-dihydro-pyrazolo-(4,3-c)quinolin-3-one]
< 1 | CC(C)N1CCN(C(=O)n2cc3c(=O)n(-c4ccccc4)nc-3c3cc(F)c(F)cc32)CC1 [Compd 21, 5-(4-Isopropylpiperazine-1-carbonyl)-7,8-difluoro-2-phenyl-2,5-dihydro-pyrazolo-(4,3-c)quinolin-3-one]

IC50 [µM] | Compound
< 1 | COc1ccc(-n2nc3c4cc(F)ccc4n(C(=O)N4CCN(C(C)C)CC4)cc-3c2=O)cc1 [Compd 39, 5-(4-Isopropylpiperazine-1-carbonyl)-8-fluoro-2-(4′-methoxyphenyl)-2,5-dihydro-pyrazolo-(4,3-c)quinolin-3-one]
< 1 | CN1CCN(C(=O)n2cc3c(=O)n(-c4ccccc4)nc-3c3cc(F)ccc32)CC1 [Compd 20, 5-(4-Methylpiperazine-1-carbonyl)-8-fluoro-2-phenyl-2,5-dihydro-pyrazolo-(4,3-c)quinolin-3-one]
< 1 | COc1ccc(-n2nc3c4cc(F)c(F)cc4n(C(=O)N4CCN(C(C)C)CC4)cc-3c2=O)cc1 [Compd 38, 5-(4-Isopropylpiperazine-1-carbonyl)-7,8-difluoro-2-(4′-methoxyphenyl)-2,5-dihydro-pyrazolo-(4,3-c)quinolin-3-one]
< 1 | CC(C)N1CCN(C(=O)n2cc3c(=O)n(-c4ccccc4)nc-3c3cc(N4CCOCC4)ccc32)CC1 [Compd 34, 5-(4-Isopropylpiperazine-1-carbonyl)-8-morpholino-2-phenyl-2,5-dihydro-pyrazolo-(4,3-c)quinolin-3-one]
< 1 | CCCN1CCN(C(=O)n2cc3c(=O)n(-c4ccccc4)nc-3c3ccccc32)CC1 [Compd 40, 5-(4-Propylpiperazine-1-carbonyl)-2-phenyl-2,5-dihydro-pyrazolo-(4,3-c) quinolin-3-one]
< 1 | CC(C)N1CCN(C(=O)n2cc3c(=O)n(-c4ccccc4)nc-3c3cc(F)ccc32)CC1 [Compd 19, 5-(4-Isopropylpiperazine-1-carbonyl)-8-fluoro-2-phenyl-2,5-dihydro-pyrazolo-(4,3-c)quinolin-3-one]
< 1 | CC1CCCN1C(=O)n1cc2c(=O)n(-c3ccccc3)nc-2c2ccccc21 (centres unmarked) [Compd 9, 5-(2-Methylpyrrolidine-1-carbonyl)-2-phenyl-2,5-dihydro-pyrazolo-(4,3-c) quinolin-3-one]
< 1 | C=CCN1CCN(C(=O)n2cc3c(=O)n(-c4ccccc4)nc-3c3ccccc32)CC1 [Compd 14, 5-(4-Allylpiperazine-1-carbonyl)-2-phenyl-2,5-dihydro-pyrazolo-(4,3-c) quinolin-3-one]
< 1 | CC(C)N1CCN(C(=O)n2cc3c(=O)n(-c4ccccc4)nc-3c3ccccc32)CC1 [Compd 8, 5-(4-Isopropylpiperazine-1-carbonyl)-2-phenyl-2,5-dihydro-pyrazolo-(4,3-c)quinolin-3-one]
< 1 | COc1ccc(-n2nc3c4ccccc4n(C(=O)N4CCN(C(C)C)CC4)cc-3c2=O)cc1 [Compd 17, 5-(4-Isopropylpiperazine-1-carbonyl)-2-(4′-methoxyphenyl)-2,5-dihydro-pyrazolo-(4,3-c)quinolin-3-one]
> 1 | O=C(N1CCOCC1)n1cc2c(=O)n(-c3ccccc3)nc-2c2ccccc21 [Compd 13, 5-(Morpholine-4-carbonyl)-2-phenyl-2,5-dihydro-pyrazolo-(4,3-c)quinolin-3-one]
> 1 | Cc1c2c(=O)n(-c3ccccc3)nc-2c2cc(F)c(F)cc2n1C(=O)N1CCN(C)CC1 [Compd 47, 5-(4-Methylpiperazine-1-carbonyl)-7,8-difluoro-4-methyl-2-phenyl-2,5-dihydro-pyrazolo-(4,3-c)quinolin-3-one]
< 1 | COc1ccc(-n2nc3c4ccccc4n(C(=O)N4CCN(C)CC4)cc-3c2=O)cc1 [Compd 18, 5-(4-Methylpiperazine-1-carbonyl)-2-(4′-methoxyphenyl)-2,5-dihydro-pyrazolo-(4,3-c)quinolin-3-one]
< 1 | Cc1ccc2c(c1)c1nn(-c3ccccc3)c(=O)c-1cn2C(=O)N1CCN(C(C)C)CC1 [Compd 25, 5-(4-Isopropylpiperazine-1-carbonyl)-8-methyl-2-phenyl-2,5-dihydro-pyrazolo-(4,3-c)quinolin-3-one]
< 1 | O=C(N1CCC(O)CC1)n1cc2c(=O)n(-c3ccsc3)nc-2c2cc(F)c(F)cc21 [Compd 50, 5-(4-Hydroxypiperidine-1-carbonyl)-2-(thiophen-3-yl)-7,8-difluoro-2,5-dihydro-pyrazolo[4,3-c]quinolin-3-one]
< 1 | CC1CN(C(=O)n2cc3c(=O)n(-c4ccccc4)nc-3c3ccccc32)CC(C)O1 (centres unmarked) [Compd 6]
< 1 | Cc1ccc2c(c1)c1nn(-c3ccccc3)c(=O)c-1cn2C(=O)N1CCC(O)CC1 [Compd 27, 5-(4-Hydroxypiperidine-1-carbonyl)-8-methyl-2-phenyl-2,5-dihydro-pyrazolo-(4,3-c)quinolin-3-one]
< 1 | CN1CCCN(C(=O)n2cc3c(=O)n(-c4ccccc4)nc-3c3cc(F)c(F)cc32)CC1 [Compd 52, 5-(4-Methylperhydro[1,4]-diazepine-1-carbonyl)-7,8-difluoro-2-phenyl-2,5-dihydro-pyrazolo[4,3-c]quinolin-3-one]

Compound | IC50 [µM]
CC(C)N1CCN(C(=O)n2cc3c(=O)n(-c4ccccn4)nc-3c3cc(F)c(F)cc32)CC1 [Compd 53, 5-(4-Isopropylpiperazine-1-carbonyl)-7,8-difluoro-2-(2′-pyridyl)-2,5-dihydro-pyrazolo-[4,3-c]quinolin-3-one] | > 1
5-(4-Isopropylpiperazine-1-carbonyl)-7,8-difluoro-4-methyl-2-phenyl-2,5-dihydro-pyrazolo-(4,3-c)quinolin-3-one [Compd 48] | > 1
